Results published in US11767341B2, “Lincosamide antibiotics and uses thereof” (President and Fellows of Harvard College, priority 2017, dated 2023).
In brackets after ≈: the same amount, converted by molar mass. Like-named read-outs stand apart in the source and are kept apart here.

Key:
Assay in all cases: MIC determination
Format in all cases: cell-based
S. aureus MMX 3035 cErmA = conditions: Staphylococcus aureus, MMX3035CERMA; S. aureus MMX 3035 cErmA; read-out: MIC
[1] = tested on: S. aureus MP-549 msr(a) USA 300; conditions: Staphylococcus aureus, USA300, S. aureus MP-549 msr(a) USA 300
[2] = tested on: P. aeruginosa MMX 3476 Δmex; conditions: Pseudomonas aeruginosa
[3] = tested on: S. pyogenes MMX 946 Macrolide-Resistant; conditions: Streptococcus pyogenes; S. pyogenes MMX 946 Macrolide-Resistant (MacRes); read-out: MIC
[4] = tested on: E. faecalis MMX 847 Macrolide-Resistant; conditions: Enterococcus faecalis
E. coli MP-9 ΔTolC = conditions: Escherichia coli
C. difficile BAA 1805 = conditions: Clostridioides difficile, BAA1805
S. aureus ATCC 29213 = conditions: Staphylococcus aureus
S. aureus BAA 977 iErmA = conditions: Staphylococcus aureus, BAA977
S. pneumoniae ATCC 49619 = conditions: Streptococcus pneumoniae, ATCC49619; S. pneumoniae ATCC 49619; read-out: MIC
[5] = tested on: S. aureus Micromyx USA 300; conditions: Staphylococcus aureus, USA300; S. aureus Micromyx USA 300; read-out: MIC
H. influenzae ATCC 49247 = conditions: Haemophilus influenzae, ATCC49247; H. influenzae ATCC 49247; read-out: MIC
[6] = tested on: S. pneumoniae MMX 3028 cErmB; conditions: Streptococcus pneumoniae, MMX3028CERMB
S. pyogenes ATCC 19615 = conditions: Streptococcus pyogenes, ATCC19615; S. pyogenes ATCC 19615; read-out: MIC
E. coli ATCC 25922 = conditions: Escherichia coli
B. fragilis ATCC 25285 = conditions: Bacteroides fragilis, ATCC25285; B. fragilis ATCC 25285; read-out: MIC
[7] = tested on: E. coli MMX TolC parent strain; conditions: Escherichia coli
[8] = tested on: S. pneumoniae MMX 3031 cMefA; conditions: Streptococcus pneumoniae, MMX3031CMEFA
[9] = tested on: E. coli MP-74 LptD mutant; conditions: Escherichia coli
E. coli MMX 0121 ΔTolC = conditions: Escherichia coli
E. faecalis ATCC 29212 = conditions: Enterococcus faecalis, ATCC29212
P. aeruginosa ATCC 27853 = conditions: Pseudomonas aeruginosa, ATCC27853
[10] = tested on: P. aeruginosa MMX Mex parent strain; conditions: Pseudomonas aeruginosa
K. pneumoniae ATCC 10031 = conditions: Klebsiella pneumoniae, ATCC10031
[11] = tested on: S. aureus MP-513 clinical cErm; conditions: Staphylococcus aureus
[12] = ATCC29213, S. aureus ATCC 29213, read-out: MIC
[13] = K. pneumoniae ATCC 10031, read-out: MIC

With `CSC1O[C@H]([C@H](NC(=O)[C@H]2NC[C@@H]3C[C@H]4C[C@H]4CO[C@H]32)[C@H](C)Cl)C(O)C(O)[C@H]1O` (stereo in doubt) [FSA-507007] the MIC (S. aureus MMX 3035 cErmA) was > 64 µg/mL, the MIC [1] was 0.25 µg/mL (≈ 0.554 µM) and the MIC [2] was 64 µg/mL (≈ 142 µM). For the same compound, the MIC [3] was 32 µg/mL (≈ 71 µM), the MIC ([4]; E. faecalis MMX 847 Macrolide-Resistant (MacRes), read-out: MIC) was > 64 µg/mL and the MIC (E. coli MP-9 ΔTolC) was 16 µg/mL (≈ 35.5 µM). For the same compound, the MIC (C. difficile BAA 1805; C. difficile BAA 1805, read-out: MIC) was 4 µg/mL (≈ 8.87 µM), the MIC (S. aureus ATCC 29213; [12]) was 0.25 µg/mL (≈ 0.554 µM) and the MIC (S. aureus BAA 977 iErmA) was 0.5 µg/mL (≈ 1.11 µM). It also gave an MIC (S. pneumoniae ATCC 49619) of 0.12 µg/mL (≈ 0.266 µM), an MIC [5] of 0.12 µg/mL (≈ 0.266 µM) and an MIC (H. influenzae ATCC 49247) of 2 µg/mL (≈ 4.43 µM). The MIC [6] was 64 µg/mL (≈ 142 µM), the MIC (S. pyogenes ATCC 19615) was ≤ 0.06 µg/mL and the MIC (E. coli ATCC 25922; ATCC25922, E. coli ATCC 25922, read-out: MIC) was > 64 µg/mL. For the same compound, the MIC (B. fragilis ATCC 25285) was 32 µg/mL (≈ 71 µM), the MIC ([7]; E. coli MMX TolC parent strain, read-out: MIC) was > 64 µg/mL and the MIC [8] was 0.12 µg/mL (≈ 0.266 µM). The MIC [9] was 16 µg/mL (≈ 35.5 µM), the MIC (E. coli MMX 0121 ΔTolC) was 8 µg/mL (≈ 17.7 µM) and the MIC (E. faecalis ATCC 29212) was 16 µg/mL (≈ 35.5 µM). The MIC (P. aeruginosa ATCC 27853; P. aeruginosa ATCC 27853, read-out: MIC) was > 64 µg/mL, the MIC ([10]; P. aeruginosa MMX Mex parent strain, read-out: MIC) was > 64 µg/mL and the MIC (K. pneumoniae ATCC 10031; [13]) was > 64 µg/mL.

In the case of `CSC1O[C@H]([C@H](NC(=O)[C@@H]2[C@@H]3OCC=CC[C@H]3CN2C)[C@H](C)Sc2ccc(-c3cncnc3)cc2)C(O)[C@@H](O)[C@H]1O` (stereo partly drawn) [FSA-212034], the MIC (S. aureus MMX 3035 cErmA) is reported as 32 µg/mL (≈ 53.1 µM), the MIC [1] is reported as 0.5 µg/mL (≈ 0.829 µM) and the MIC [2] is reported as > 64 µg/mL. The MIC [3] was 2 µg/mL (≈ 3.32 µM), the MIC [4] was > 64 µg/mL and the MIC (E. coli MP-9 ΔTolC) was 16 µg/mL (≈ 26.5 µM). The MIC (C. difficile BAA 1805) was 0.5 µg/mL (≈ 0.829 µM), the MIC (S. aureus ATCC 29213; [12]) was 0.25 µg/mL (≈ 0.415 µM) and the MIC (S. aureus BAA 977 iErmA) was 0.25 µg/mL (≈ 0.415 µM). For the same compound, the MIC (S. pneumoniae ATCC 49619) was ≤ 0.06 µg/mL, the MIC [5] was 0.25 µg/mL (≈ 0.415 µM) and the MIC (H. influenzae ATCC 49247) was 4 µg/mL (≈ 6.64 µM). The MIC ([6]; S. pneumoniae MMX 3028 cErmB, read-out: MIC) was 4 µg/mL (≈ 6.64 µM), the MIC (S. pyogenes ATCC 19615) was ≤ 0.06 µg/mL and the MIC (E. coli ATCC 25922; ATCC25922) was > 64 µg/mL. For the same compound, the MIC (B. fragilis ATCC 25285) was 1 µg/mL (≈ 1.66 µM), the MIC [7] was > 64 µg/mL and the MIC [8] was ≤ 0.06 µg/mL. For the same compound, the MIC (E. coli MMX 0121 ΔTolC) was 1 µg/mL (≈ 1.66 µM), the MIC (E. faecalis ATCC 29212) was 16 µg/mL (≈ 26.5 µM) and the MIC (P. aeruginosa ATCC 27853) was > 64 µg/mL. For the same compound, the MIC [10] was > 64 µg/mL and the MIC (K. pneumoniae ATCC 10031; [13]) was 64 µg/mL (≈ 106 µM).

With `CSC1O[C@H]([C@H](NC(=O)[C@H]2NC[C@@H]3CNCCO[C@H]32)[C@H](C)Cl)C(O)C(O)[C@H]1O` (stereo partly drawn) [FSA-503001] the MIC [1] was > 64 µg/mL, the MIC (E. coli MP-9 ΔTolC) was > 64 µg/mL and the MIC (S. aureus ATCC 29213; [12]) was 64 µg/mL (≈ 145 µM). The MIC (S. aureus BAA 977 iErmA) was > 64 µg/mL, the MIC [11] was > 64 µg/mL and the MIC (E. coli ATCC 25922; ATCC25922) was > 64 µg/mL. The MIC (P. aeruginosa ATCC 27853) was > 64 µg/mL and the MIC (K. pneumoniae ATCC 10031) was > 64 µg/mL.

For `CSC1O[C@H]([C@H](NC(=O)[C@H]2NC[C@@H]3CN(C)CCO[C@H]32)[C@H](C)Cl)C(O)C(O)[C@H]1O` (stereo partly drawn) [FSA-503002], the MIC [1] was > 64 µg/mL, the MIC (E. coli MP-9 ΔTolC) was > 64 µg/mL and the MIC (S. aureus ATCC 29213; [12]) was 64 µg/mL (≈ 141 µM). The MIC (S. aureus BAA 977 iErmA) was > 64 µg/mL, the MIC [11] was > 64 µg/mL and the MIC (E. coli ATCC 25922; ATCC25922) was > 64 µg/mL. The MIC (P. aeruginosa ATCC 27853) was > 64 µg/mL and the MIC (K. pneumoniae ATCC 10031) was > 64 µg/mL.

`CSC1O[C@H]([C@H](NC(=O)[C@H]2NC[C@@H]3CN(C(=N)N)CCO[C@H]32)[C@H](C)Cl)C(O)C(O)[C@H]1O` (stereo partly drawn) [FSA-504057] was tested, and the MIC (E. coli MP-9 ΔTolC) was > 64 µg/mL, the MIC (S. aureus ATCC 29213; ATCC29213) was > 64 µg/mL and the MIC [11] was > 64 µg/mL. The MIC (E. coli ATCC 25922; ATCC25922) was > 64 µg/mL, the MIC (P. aeruginosa ATCC 27853) was > 64 µg/mL and the MIC (K. pneumoniae ATCC 10031) was > 64 µg/mL.

For `CSC1O[C@H]([C@H](NC(=O)[C@H]2NC[C@@H]3CN(CC(=O)O)CCO[C@H]32)[C@H](C)Cl)C(O)C(O)[C@H]1O` (stereo partly drawn) [FSA-504063], the MIC (E. coli MP-9 ΔTolC) was > 64 µg/mL, the MIC (S. aureus ATCC 29213; ATCC29213) was > 64 µg/mL and the MIC [11] was > 64 µg/mL. The MIC (E. coli ATCC 25922; ATCC25922) was > 64 µg/mL, the MIC (P. aeruginosa ATCC 27853) was > 64 µg/mL and the MIC (K. pneumoniae ATCC 10031) was > 64 µg/mL.
